Measured values reported in PubChem BioAssay AID292 (DTP/NCI, 2004).
Inconclusive results and toxic doses are left out. How the source made its calls: active means survival T/C of 150% or more; inactive means T/C below 125% in these data.

Tested on: B6C3F1 mice, ip Sarcoma M5076, median survival T/C
Experiment: NCI In Vivo Anticancer Drug Screen. Data for tumor model Sarcoma M5076 (intraperitoneal) in B6C3F1 mice
Conditions: endpoint: median survival time, schedule: Q04DX004 (ip), higher = longer survival
Outline: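 Mice carrying the transplanted tumour received compound treatment. Survival was recorded, and each value is the treated-group measurement divided by that of the vehicle-dosed control group.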

Measured: T/C

CC1=C[P+](c2ccccc2)(c2ccccc2)C=C(c2ccccc2)O1
inactive: dose: 1.25 mg/kg/injection, vehicle: saline + alcohol 110 % of control | dose: 5.0 mg/kg/injection, vehicle: saline + alcohol 110 % of control | dose: 10.0 mg/kg/injection, vehicle: saline + alcohol 117 % of control

CN(C)[C@@H]1C(=O)C(C(=O)NCN2CCN(C(=N)N=C(N)N)CC2)=C(O)[C@@]2(O)C(=O)C3=C(O)c4c(O)cccc4[C@@](C)(O)[C@H]3C[C@@H]12
inactive: dose: 0.31 mg/kg/injection, vehicle: saline 105 % of control | dose: 0.62 mg/kg/injection, vehicle: saline 102 % of control | dose: 1.25 mg/kg/injection, vehicle: saline 102 % of control | dose: 1.8 mg/kg/injection, vehicle: suspension in saline 94 % of control | dose: 2.5 mg/kg/injection, vehicle: saline 95 % of control | dose: 3.0 mg/kg/injection, vehicle: suspension in saline 90 % of control | dose: 5.0 mg/kg/injection, vehicle: saline 106 % of control | dose: 5.0 mg/kg/injection, vehicle: suspension in saline 93 % of control | dose: 8.33 mg/kg/injection, vehicle: suspension in saline 91 % of control | dose: 13.88 mg/kg/injection, vehicle: suspension in saline 94 % of control
